In ChEMBL document CHEMBL4507291 (2021):

Experiments:
[1] = molecular target: PI3-kinase p110-alpha/p85-alpha (Homo sapiens) (UniProt P27986+P42336); test: PIK3CA/PIK3R1 (p110 alpha/p85 alpha) Kinase screen; format: protein-complex assay; conditions: Compound concentration 1.0 uM
[2] = molecular target: T1, Inhibitor of nuclear factor kappa-B kinase subunit epsilon (Homo sapiens) (UniProt Q14164); test: IKBKE (IKK epsilon) Kinase screen; conditions: Compound concentration 1.0 uM
T1 sequence (whole entry): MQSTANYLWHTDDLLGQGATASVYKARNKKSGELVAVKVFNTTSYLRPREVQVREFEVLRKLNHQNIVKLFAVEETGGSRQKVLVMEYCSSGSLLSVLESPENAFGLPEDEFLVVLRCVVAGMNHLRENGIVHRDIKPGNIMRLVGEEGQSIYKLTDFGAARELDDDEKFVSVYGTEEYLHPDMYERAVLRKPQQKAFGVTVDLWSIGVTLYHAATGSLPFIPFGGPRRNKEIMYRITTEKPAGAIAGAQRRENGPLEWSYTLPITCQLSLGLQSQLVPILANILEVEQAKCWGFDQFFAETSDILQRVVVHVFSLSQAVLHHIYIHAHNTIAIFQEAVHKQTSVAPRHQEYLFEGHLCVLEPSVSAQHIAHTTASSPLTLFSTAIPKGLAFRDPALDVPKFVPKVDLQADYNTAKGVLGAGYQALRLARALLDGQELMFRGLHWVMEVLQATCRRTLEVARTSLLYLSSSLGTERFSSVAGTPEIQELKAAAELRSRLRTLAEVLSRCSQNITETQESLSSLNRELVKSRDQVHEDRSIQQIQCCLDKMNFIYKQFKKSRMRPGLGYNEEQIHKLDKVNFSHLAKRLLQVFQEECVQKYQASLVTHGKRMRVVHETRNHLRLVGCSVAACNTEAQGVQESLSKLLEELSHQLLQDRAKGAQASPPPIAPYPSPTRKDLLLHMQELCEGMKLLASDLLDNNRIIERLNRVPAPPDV

[3] = molecular target: Proto-oncogene tyrosine-protein kinase Src (Homo sapiens) (UniProt P12931); test: SRC N1 Kinase screen; conditions: Compound concentration 1.0 uM
Chain of Proto-oncogene tyrosine-protein kinase Src (Homo sapiens) (P12931 2-536 limits assumed): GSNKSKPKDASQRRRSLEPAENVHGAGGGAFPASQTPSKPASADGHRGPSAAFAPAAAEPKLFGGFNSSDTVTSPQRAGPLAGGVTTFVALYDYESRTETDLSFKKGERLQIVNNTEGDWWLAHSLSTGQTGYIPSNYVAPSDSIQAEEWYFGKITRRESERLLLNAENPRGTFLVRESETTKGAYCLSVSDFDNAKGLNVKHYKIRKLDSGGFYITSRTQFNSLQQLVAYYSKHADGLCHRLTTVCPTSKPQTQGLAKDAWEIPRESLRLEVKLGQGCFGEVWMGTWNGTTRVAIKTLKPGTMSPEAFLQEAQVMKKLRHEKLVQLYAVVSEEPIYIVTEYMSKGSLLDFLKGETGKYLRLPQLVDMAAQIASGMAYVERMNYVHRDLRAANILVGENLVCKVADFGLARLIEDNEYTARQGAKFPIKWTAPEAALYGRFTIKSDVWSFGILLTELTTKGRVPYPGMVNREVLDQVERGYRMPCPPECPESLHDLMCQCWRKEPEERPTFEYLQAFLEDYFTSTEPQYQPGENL

[4] = molecular target: STE20-like serine/threonine-protein kinase (Homo sapiens) (UniProt Q9H2G2); test: SLK Kinase screen; conditions: Compound concentration 1.0 uM
Chain of STE20-like serine/threonine-protein kinase (Homo sapiens) (Q9H2G2 whole entry, looked up): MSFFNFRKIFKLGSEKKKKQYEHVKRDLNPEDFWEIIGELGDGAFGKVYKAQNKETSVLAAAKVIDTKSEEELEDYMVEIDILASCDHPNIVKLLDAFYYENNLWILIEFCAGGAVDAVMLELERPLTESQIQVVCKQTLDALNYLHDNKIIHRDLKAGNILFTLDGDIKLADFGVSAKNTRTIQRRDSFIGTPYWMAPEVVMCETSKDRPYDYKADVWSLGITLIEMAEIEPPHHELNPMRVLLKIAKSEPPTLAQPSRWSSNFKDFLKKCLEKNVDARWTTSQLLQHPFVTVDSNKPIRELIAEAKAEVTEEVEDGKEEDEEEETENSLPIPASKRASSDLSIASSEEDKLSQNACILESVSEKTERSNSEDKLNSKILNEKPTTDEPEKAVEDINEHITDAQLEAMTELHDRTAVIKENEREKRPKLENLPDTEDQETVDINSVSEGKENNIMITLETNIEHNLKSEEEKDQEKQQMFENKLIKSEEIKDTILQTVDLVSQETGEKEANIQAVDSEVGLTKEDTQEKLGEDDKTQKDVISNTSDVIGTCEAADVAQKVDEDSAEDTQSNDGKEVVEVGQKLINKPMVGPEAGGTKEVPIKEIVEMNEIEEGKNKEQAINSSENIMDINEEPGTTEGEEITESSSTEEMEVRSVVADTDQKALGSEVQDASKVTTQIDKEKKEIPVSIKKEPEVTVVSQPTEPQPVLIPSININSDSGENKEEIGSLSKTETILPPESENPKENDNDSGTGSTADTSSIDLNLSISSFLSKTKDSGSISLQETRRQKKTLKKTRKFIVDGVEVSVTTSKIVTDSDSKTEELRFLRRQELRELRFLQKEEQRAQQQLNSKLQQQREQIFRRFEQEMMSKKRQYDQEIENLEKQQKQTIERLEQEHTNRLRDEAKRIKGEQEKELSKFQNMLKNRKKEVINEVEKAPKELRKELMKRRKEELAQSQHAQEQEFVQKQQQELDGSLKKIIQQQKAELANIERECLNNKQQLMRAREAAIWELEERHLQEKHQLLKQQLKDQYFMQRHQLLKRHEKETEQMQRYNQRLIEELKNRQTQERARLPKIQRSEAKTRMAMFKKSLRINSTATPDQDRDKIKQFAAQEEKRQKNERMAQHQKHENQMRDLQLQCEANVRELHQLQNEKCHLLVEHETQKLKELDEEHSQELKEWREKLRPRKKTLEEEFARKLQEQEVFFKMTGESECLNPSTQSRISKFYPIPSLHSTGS

[5] = molecular target: C-X-C chemokine receptor type 4 (Homo sapiens) (UniProt P61073); test: Chemokine CXCR4 Eurofins-Panlabs radioligand binding assay; set-up: ligand concentration 0.03 nM; conditions: Compound concentration 10.0 uM
Chain of C-X-C chemokine receptor type 4 (Homo sapiens) (P61073 whole entry): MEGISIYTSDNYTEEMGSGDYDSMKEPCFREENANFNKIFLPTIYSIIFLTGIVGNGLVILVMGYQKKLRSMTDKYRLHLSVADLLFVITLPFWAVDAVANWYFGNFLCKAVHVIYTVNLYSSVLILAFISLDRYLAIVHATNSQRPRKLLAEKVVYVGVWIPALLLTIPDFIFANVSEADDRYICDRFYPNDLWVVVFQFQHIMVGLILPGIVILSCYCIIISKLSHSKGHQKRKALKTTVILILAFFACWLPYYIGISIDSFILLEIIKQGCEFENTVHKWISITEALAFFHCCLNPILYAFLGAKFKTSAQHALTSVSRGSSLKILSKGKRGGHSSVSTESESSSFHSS

[6] = molecular target: T2, Tyrosine-protein kinase Mer (Homo sapiens) (UniProt Q12866); test: MERTK (cMER) Kinase screen; conditions: Compound concentration 1.0 uM
T2 sequence (whole entry): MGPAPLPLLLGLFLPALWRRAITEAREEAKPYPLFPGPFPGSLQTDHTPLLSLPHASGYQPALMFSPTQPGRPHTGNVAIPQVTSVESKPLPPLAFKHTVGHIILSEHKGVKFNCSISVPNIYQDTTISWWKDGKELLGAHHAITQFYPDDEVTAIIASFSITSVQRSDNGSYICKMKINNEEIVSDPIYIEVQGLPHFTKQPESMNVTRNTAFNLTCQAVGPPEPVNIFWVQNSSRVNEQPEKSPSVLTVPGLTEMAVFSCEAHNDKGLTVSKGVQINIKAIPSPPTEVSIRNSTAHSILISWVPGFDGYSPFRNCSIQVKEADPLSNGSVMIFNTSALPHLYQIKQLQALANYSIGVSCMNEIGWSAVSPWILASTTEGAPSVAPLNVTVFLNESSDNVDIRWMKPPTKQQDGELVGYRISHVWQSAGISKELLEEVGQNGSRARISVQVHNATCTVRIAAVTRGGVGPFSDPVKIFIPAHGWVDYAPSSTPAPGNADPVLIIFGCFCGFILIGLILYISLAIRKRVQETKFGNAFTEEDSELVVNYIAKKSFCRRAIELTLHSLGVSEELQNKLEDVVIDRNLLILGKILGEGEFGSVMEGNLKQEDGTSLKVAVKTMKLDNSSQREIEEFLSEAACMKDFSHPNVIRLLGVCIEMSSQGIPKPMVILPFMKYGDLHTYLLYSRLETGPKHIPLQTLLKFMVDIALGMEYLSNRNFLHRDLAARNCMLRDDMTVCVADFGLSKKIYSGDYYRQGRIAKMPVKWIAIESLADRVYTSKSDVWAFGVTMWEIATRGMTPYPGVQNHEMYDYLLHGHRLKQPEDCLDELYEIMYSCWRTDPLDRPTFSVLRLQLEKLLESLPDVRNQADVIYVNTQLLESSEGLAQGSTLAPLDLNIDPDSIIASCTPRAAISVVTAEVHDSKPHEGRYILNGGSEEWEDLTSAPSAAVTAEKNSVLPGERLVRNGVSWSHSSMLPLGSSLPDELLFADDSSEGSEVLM

[7] = molecular target: T3, Serine/threonine-protein kinase D1 (Homo sapiens) (UniProt Q15139); test: PRKD1 (PKC mu) Kinase screen; conditions: Compound concentration 1.0 uM
T3 sequence (whole entry): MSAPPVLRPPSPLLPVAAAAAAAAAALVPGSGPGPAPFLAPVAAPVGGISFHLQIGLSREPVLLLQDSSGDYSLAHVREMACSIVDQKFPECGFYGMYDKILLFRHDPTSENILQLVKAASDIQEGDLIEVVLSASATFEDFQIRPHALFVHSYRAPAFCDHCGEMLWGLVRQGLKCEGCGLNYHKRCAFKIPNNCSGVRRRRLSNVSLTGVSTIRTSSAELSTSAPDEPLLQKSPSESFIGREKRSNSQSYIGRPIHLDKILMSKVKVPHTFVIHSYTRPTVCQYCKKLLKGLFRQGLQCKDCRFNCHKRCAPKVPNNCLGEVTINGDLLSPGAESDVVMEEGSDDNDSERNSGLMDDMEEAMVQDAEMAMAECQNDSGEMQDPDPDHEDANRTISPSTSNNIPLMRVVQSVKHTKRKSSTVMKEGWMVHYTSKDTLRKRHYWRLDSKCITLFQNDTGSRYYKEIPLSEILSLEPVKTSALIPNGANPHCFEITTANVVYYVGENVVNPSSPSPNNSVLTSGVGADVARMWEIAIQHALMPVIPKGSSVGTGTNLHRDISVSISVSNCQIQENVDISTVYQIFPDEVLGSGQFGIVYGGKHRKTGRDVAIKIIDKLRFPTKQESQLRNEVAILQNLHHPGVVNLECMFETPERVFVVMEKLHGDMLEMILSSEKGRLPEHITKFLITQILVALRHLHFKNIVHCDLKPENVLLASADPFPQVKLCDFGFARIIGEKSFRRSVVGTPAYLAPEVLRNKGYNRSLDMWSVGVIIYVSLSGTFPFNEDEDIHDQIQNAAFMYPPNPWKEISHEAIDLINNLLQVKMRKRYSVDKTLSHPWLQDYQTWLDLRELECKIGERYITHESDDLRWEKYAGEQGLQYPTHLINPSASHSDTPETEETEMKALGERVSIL

[8] = tested on: Epidermal growth factor receptor (Homo sapiens), P00533 [L861Q]; test: EGFR (ErbB1) L861Q Kinase screen; conditions: Compound concentration 1.0 uM
Chain of Epidermal growth factor receptor (Homo sapiens), P00533 [L861Q] (P00533 whole entry L861Q): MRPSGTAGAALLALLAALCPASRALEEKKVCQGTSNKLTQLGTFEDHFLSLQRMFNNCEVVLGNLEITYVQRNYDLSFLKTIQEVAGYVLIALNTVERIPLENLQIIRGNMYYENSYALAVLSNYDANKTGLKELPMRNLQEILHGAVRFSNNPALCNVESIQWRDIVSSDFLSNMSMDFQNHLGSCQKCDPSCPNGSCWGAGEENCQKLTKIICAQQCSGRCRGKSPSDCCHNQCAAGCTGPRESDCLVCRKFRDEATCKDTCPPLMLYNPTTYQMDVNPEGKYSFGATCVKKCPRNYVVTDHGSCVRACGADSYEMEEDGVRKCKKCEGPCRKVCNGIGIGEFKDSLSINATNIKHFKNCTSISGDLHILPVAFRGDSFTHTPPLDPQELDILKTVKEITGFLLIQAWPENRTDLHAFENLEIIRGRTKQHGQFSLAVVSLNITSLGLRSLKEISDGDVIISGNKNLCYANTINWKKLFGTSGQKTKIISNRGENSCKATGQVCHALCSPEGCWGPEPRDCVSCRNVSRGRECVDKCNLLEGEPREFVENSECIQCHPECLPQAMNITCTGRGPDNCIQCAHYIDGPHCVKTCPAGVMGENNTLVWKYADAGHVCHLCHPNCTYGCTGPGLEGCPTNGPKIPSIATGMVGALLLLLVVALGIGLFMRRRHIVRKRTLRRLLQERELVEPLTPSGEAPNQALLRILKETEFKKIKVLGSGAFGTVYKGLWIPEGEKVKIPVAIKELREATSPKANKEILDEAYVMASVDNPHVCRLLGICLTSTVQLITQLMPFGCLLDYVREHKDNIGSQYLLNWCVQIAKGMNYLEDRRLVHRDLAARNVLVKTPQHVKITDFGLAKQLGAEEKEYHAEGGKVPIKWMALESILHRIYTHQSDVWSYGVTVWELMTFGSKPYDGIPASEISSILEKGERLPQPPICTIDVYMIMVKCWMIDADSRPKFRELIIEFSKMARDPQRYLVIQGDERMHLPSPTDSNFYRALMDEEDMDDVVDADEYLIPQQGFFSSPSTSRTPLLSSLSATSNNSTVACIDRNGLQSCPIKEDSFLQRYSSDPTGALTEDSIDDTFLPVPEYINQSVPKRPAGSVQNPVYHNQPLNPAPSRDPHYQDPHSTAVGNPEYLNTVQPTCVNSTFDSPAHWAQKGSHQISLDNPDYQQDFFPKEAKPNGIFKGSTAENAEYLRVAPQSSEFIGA

[9] = molecular target: Cannabinoid receptor 1 (Homo sapiens) (UniProt P21554); conditions: Compound concentration 10.0 uM
Chain of Cannabinoid receptor 1 (Homo sapiens) (P21554 whole entry): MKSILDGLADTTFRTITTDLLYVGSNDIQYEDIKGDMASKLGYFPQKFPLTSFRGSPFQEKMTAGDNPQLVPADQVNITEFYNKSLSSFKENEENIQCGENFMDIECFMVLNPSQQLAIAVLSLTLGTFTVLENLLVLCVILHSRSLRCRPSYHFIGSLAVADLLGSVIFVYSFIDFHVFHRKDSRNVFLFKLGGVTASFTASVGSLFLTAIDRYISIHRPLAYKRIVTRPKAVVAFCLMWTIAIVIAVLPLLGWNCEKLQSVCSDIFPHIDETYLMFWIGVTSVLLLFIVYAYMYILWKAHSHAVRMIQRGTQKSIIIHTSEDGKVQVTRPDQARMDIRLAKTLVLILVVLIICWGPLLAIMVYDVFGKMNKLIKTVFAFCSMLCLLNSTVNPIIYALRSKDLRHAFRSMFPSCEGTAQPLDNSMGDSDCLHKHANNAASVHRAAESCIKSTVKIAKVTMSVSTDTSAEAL

Measured: inhibition

C[C@@H]1CN(c2cc(-c3n[nH]c4ccc(OC5(C)CC5)cc34)ncn2)C[C@H](C)O1 [MLi-2]
inactive: [1] 3.21% | [2] 1.77% | [3] 5.78% | [4] 1.5% | [5] 3% | [6] 4.76% | [7] 13.2% | [8] 9.16% | [9] 20%
